Patent US20250147039A1, “Compounds for complexation of rare earth elements and/or s-, p-, d- block metals, their coordination compounds, peptide conjugates, method of their preparation and use thereof” (USTAV ORGANICKE CHEMIE A BIOCHEMIE AV CR V.V.I., priority 2021, published 2025)
One block for each compound: values may come before it.

Columns and labels:
[1] = Formation of 1,5-cz-[M(Lig)] from Lig and M^III ions (metal dependent click-zip) (Charts 4, 5); type: physicochemical; conditions: MOPS/NaOH buffer pH 7.0; for conversion to 1,5-cz-[M(Lig)], Sc^III / conversion to 1,5-cz-[M(Lig)], Y^III: TD728, TD827 in 50% i-PrOH; for conversion to 1,5-cz-[M(Lig)], Y^III: TD714 sum of two diastereoisomers
[2] = Formation of 1,5-cz-[Ln(Lig)] from Lig and Ln^III ions (metal dependent click-zip), MOPS/NaOH buffer pH 7.0, analytical HPLC (Charts 1, 2); conditions: MOPS/NaOH buffer pH 7.0

conversion to 1,5-cz-[Ln(Lig)] with hydrolysed group in the side chain, Sc^III ([1]; 1 week at 80° C.): 17% | conversion to 1,5-cz-[Ln(Lig)] with hydrolysed group in the side chain, Y^III ([1]; 1 week at 80° C.): 95% | conversion to 1,5-cz-[M(Lig)], Sc^III ([1]; 1 week at 80° C.): 0% | conversion to 1,5-cz-[M(Lig)], Y^III ([1]; 1 week at 80° C.): 0% | conversion to 1,5-cz-[Ln(Lig)] with hydrolysed group in the side chain, Sc^III ([1]; 1 hour at 80° C.): 0% | conversion to 1,5-cz-[Ln(Lig)] with hydrolysed group in the side chain, Y^III ([1]; 1 hour at 80° C.): 12% | conversion to 1,5-cz-[M(Lig)], Sc^III ([1]; 1 hour at 80° C.): 1% | conversion to 1,5-cz-[M(Lig)], Y^III ([1]; 1 hour at 80° C.): 6% | conversion to 1,5-cz-[Ln(Lig)] with hydrolysed group in the side chain, Ce^III ([2]; after 1 week at 80° C.): 37% | conversion to 1,5-cz-[Ln(Lig)], Ce^III ([2]; after 1 week at 80° C.): 0% | conversion to 1,5-cz-[Ln(Lig)] with hydrolysed group in the side chain, Ce^III ([2]; after 1 hour at 80° C.): 0% | conversion to 1,5-cz-[Ln(Lig)], Ce^III ([2]; after 1 hour at 80° C.): 0% | conversion to 1,5-cz-[Ln(Lig)] with hydrolysed group in the side chain, Dy^III ([2]; after 1 week at 80° C.): 94% | conversion to 1,5-cz-[Ln(Lig)], Dy^III ([2]; after 1 week at 80° C.): 0% | conversion to 1,5-cz-[Ln(Lig)] with hydrolysed group in the side chain, Dy^III ([2]; after 1 hour at 80° C.): 8% | conversion to 1,5-cz-[Ln(Lig)], Dy^III ([2]; after 1 hour at 80° C.): 5% | conversion to 1,5-cz-[Ln(Lig)] with hydrolysed group in the side chain, Er^III ([2]; after 1 week at 80° C.): 94% | conversion to 1,5-cz-[Ln(Lig)], Er^III ([2]; after 1 week at 80° C.): 0% | conversion to 1,5-cz-[Ln(Lig)] with hydrolysed group in the side chain, Er^III ([2]; after 1 hour at 80° C.): 19% | conversion to 1,5-cz-[Ln(Lig)], Er^III ([2]; after 1 hour at 80° C.): 12% | conversion to 1,5-cz-[Ln(Lig)] with hydrolysed group in the side chain, Eu^III ([2]; after 1 week at 80° C.): 91% | conversion to 1,5-cz-[Ln(Lig)], Eu^III ([2]; after 1 week at 80° C.): 0% | conversion to 1,5-cz-[Ln(Lig)] with hydrolysed group in the side chain, Eu^III ([2]; after 1 hour at 80° C.): 2% | conversion to 1,5-cz-[Ln(Lig)], Eu^III ([2]; after 1 hour at 80° C.): 2% | conversion to 1,5-cz-[Ln(Lig)] with hydrolysed group in the side chain, Gd^III ([2]; after 1 week at 80° C.): 92% | conversion to 1,5-cz-[Ln(Lig)], Gd^III ([2]; after 1 week at 80° C.): 0% | conversion to 1,5-cz-[Ln(Lig)] with hydrolysed group in the side chain, Gd^III ([2]; after 1 hour at 80° C.): 3% | conversion to 1,5-cz-[Ln(Lig)], Gd^III ([2]; after 1 hour at 80° C.): 2% | conversion to 1,5-cz-[Ln(Lig)] with hydrolysed group in the side chain, Ho^III ([2]; after 1 week at 80° C.): 94% | conversion to 1,5-cz-[Ln(Lig)], Ho^III ([2]; after 1 week at 80° C.): 0% | conversion to 1,5-cz-[Ln(Lig)] with hydrolysed group in the side chain, Ho^III ([2]; after 1 hour at 80° C.): 13% | conversion to 1,5-cz-[Ln(Lig)], Ho^III ([2]; after 1 hour at 80° C.): 7% | conversion to 1,5-cz-[Ln(Lig)] with hydrolysed group in the side chain, La^III ([2]; after 1 week at 80° C.): 40% | conversion to 1,5-cz-[Ln(Lig)], La^III ([2]; after 1 week at 80° C.): 0% | conversion to 1,5-cz-[Ln(Lig)] with hydrolysed group in the side chain, La^III ([2]; after 1 hour at 80° C.): 0% | conversion to 1,5-cz-[Ln(Lig)], La^III ([2]; after 1 hour at 80° C.): 0% | conversion to 1,5-cz-[Ln(Lig)] with hydrolysed group in the side chain, Lu^III ([2]; after 1 week at 80° C.): 97% | conversion to 1,5-cz-[Ln(Lig)], Lu^III ([2]; after 1 week at 80° C.): 0% | conversion to 1,5-cz-[Ln(Lig)] with hydrolysed group in the side chain, Lu^III ([2]; after 1 hour at 80° C.): 30% | conversion to 1,5-cz-[Ln(Lig)], Lu^III ([2]; after 1 hour at 80° C.): 26% | conversion to 1,5-cz-[Ln(Lig)] with hydrolysed group in the side chain, Nd^III ([2]; after 1 week at 80° C.): 73% | conversion to 1,5-cz-[Ln(Lig)], Nd^III ([2]; after 1 week at 80° C.): 0% | conversion to 1,5-cz-[Ln(Lig)] with hydrolysed group in the side chain, Nd^III ([2]; after 1 hour at 80° C.): 0% | conversion to 1,5-cz-[Ln(Lig)], Nd^III ([2]; after 1 hour at 80° C.): 1% | conversion to 1,5-cz-[Ln(Lig)] with hydrolysed group in the side chain, Pr^III ([2]; after 1 week at 80° C.): 62% | conversion to 1,5-cz-[Ln(Lig)], Pr^III ([2]; after 1 week at 80° C.): 0% | conversion to 1,5-cz-[Ln(Lig)] with hydrolysed group in the side chain, Pr^III ([2]; after 1 hour at 80° C.): 0% | conversion to 1,5-cz-[Ln(Lig)], Pr^III ([2]; after 1 hour at 80° C.): 0% | conversion to 1,5-cz-[Ln(Lig)] with hydrolysed group in the side chain, Sm^III ([2]; after 1 week at 80° C.): 88% | conversion to 1,5-cz-[Ln(Lig)], Sm^III ([2]; after 1 week at 80° C.): 0% | conversion to 1,5-cz-[Ln(Lig)] with hydrolysed group in the side chain, Sm^III ([2]; after 1 hour at 80° C.): 2% | conversion to 1,5-cz-[Ln(Lig)], Sm^III ([2]; after 1 hour at 80° C.): 1% | conversion to 1,5-cz-[Ln(Lig)] with hydrolysed group in the side chain, Tb^III ([2]; after 1 week at 80° C.): 93% | conversion to 1,5-cz-[Ln(Lig)], Tb^III ([2]; after 1 week at 80° C.): 0% | conversion to 1,5-cz-[Ln(Lig)] with hydrolysed group in the side chain, Tb^III ([2]; after 1 hour at 80° C.): 6% | conversion to 1,5-cz-[Ln(Lig)], Tb^III ([2]; after 1 hour at 80° C.): 3% | conversion to 1,5-cz-[Ln(Lig)] with hydrolysed group in the side chain, Tm^III ([2]; after 1 week at 80° C.): 95% | conversion to 1,5-cz-[Ln(Lig)], Tm^III ([2]; after 1 week at 80° C.): 0% | conversion to 1,5-cz-[Ln(Lig)] with hydrolysed group in the side chain, Tm^III ([2]; after 1 hour at 80° C.): 26% | conversion to 1,5-cz-[Ln(Lig)], Tm^III ([2]; after 1 hour at 80° C.): 19% | conversion to 1,5-cz-[Ln(Lig)] with hydrolysed group in the side chain, Yb^III ([2]; after 1 week at 80° C.): 96% | conversion to 1,5-cz-[Ln(Lig)], Yb^III ([2]; after 1 week at 80° C.): 0% | conversion to 1,5-cz-[Ln(Lig)] with hydrolysed group in the side chain, Yb^III ([2]; after 1 hour at 80° C.): 30% | conversion to 1,5-cz-[Ln(Lig)], Yb^III ([2]; after 1 hour at 80° C.): 24%
Structure (SMILES): C#Cc1cccc(CN2CCN(CC(=O)O)CCN(Cc3cc(C(=O)OC)cc(CN=[N+]=[N-])n3)CCN(CC(=O)O)CC2)n1 [TD1092]

conversion to 1,5-cz-[M(Lig)], Sc^III ([1]; 1 week at 80° C.): 0% | conversion to 1,5-cz-[M(Lig)], Y^III ([1]; 1 week at 80° C.): 0% | conversion to 1,5-cz-[M(Lig)], Sc^III ([1]; 1 hour at 80° C.): 0% | conversion to 1,5-cz-[M(Lig)], Y^III ([1]; 1 hour at 80° C.): 0% | conversion to 1,5-cz-[Ln(Lig)], Ce^III ([2]; after 1 week at 80° C.): 0% | conversion to 1,5-cz-[Ln(Lig)], Ce^III ([2]; after 1 hour at 80° C.): 0% | conversion to 1,5-cz-[Ln(Lig)], Dy^III ([2]; after 1 week at 80° C.): 0% | conversion to 1,5-cz-[Ln(Lig)], Dy^III ([2]; after 1 hour at 80° C.): 0% | conversion to 1,5-cz-[Ln(Lig)], Er^III ([2]; after 1 week at 80° C.): 0% | conversion to 1,5-cz-[Ln(Lig)], Er^III ([2]; after 1 hour at 80° C.): 0% | conversion to 1,5-cz-[Ln(Lig)], Eu^III ([2]; after 1 week at 80° C.): 0% | conversion to 1,5-cz-[Ln(Lig)], Eu^III ([2]; after 1 hour at 80° C.): 0% | conversion to 1,5-cz-[Ln(Lig)], Gd^III ([2]; after 1 week at 80° C.): 0% | conversion to 1,5-cz-[Ln(Lig)], Gd^III ([2]; after 1 hour at 80° C.): 0% | conversion to 1,5-cz-[Ln(Lig)], Ho^III ([2]; after 1 week at 80° C.): 0% | conversion to 1,5-cz-[Ln(Lig)], Ho^III ([2]; after 1 hour at 80° C.): 0% | conversion to 1,5-cz-[Ln(Lig)], La^III ([2]; after 1 week at 80° C.): 0% | conversion to 1,5-cz-[Ln(Lig)], La^III ([2]; after 1 hour at 80° C.): 0% | conversion to 1,5-cz-[Ln(Lig)], Lu^III ([2]; after 1 week at 80° C.): 0% | conversion to 1,5-cz-[Ln(Lig)], Lu^III ([2]; after 1 hour at 80° C.): 0% | conversion to 1,5-cz-[Ln(Lig)], Nd^III ([2]; after 1 week at 80° C.): 0% | conversion to 1,5-cz-[Ln(Lig)], Nd^III ([2]; after 1 hour at 80° C.): 0% | conversion to 1,5-cz-[Ln(Lig)], Pr^III ([2]; after 1 week at 80° C.): 0% | conversion to 1,5-cz-[Ln(Lig)], Pr^III ([2]; after 1 hour at 80° C.): 0% | conversion to 1,5-cz-[Ln(Lig)], Sm^III ([2]; after 1 week at 80° C.): 0% | conversion to 1,5-cz-[Ln(Lig)], Sm^III ([2]; after 1 hour at 80° C.): 0% | conversion to 1,5-cz-[Ln(Lig)], Tb^III ([2]; after 1 week at 80° C.): 0% | conversion to 1,5-cz-[Ln(Lig)], Tb^III ([2]; after 1 hour at 80° C.): 0% | conversion to 1,5-cz-[Ln(Lig)], Tm^III ([2]; after 1 week at 80° C.): 0% | conversion to 1,5-cz-[Ln(Lig)], Tm^III ([2]; after 1 hour at 80° C.): 0% | conversion to 1,5-cz-[Ln(Lig)], Yb^III ([2]; after 1 week at 80° C.): 0% | conversion to 1,5-cz-[Ln(Lig)], Yb^III ([2]; after 1 hour at 80° C.): 0%
Structure (SMILES): C#Cc1cccc(CN2CCN(CCC(=O)O)CCN(Cc3cccc(CN=[N+]=[N-])n3)CCN(CCC(=O)O)CC2)n1 [TD801]
